Reference: patent US8461410B2, “Wound dressing materials comprising complexes of anionic polysaccharides with silver” (Ethicon, Inc., priority 2002, dated 2013)

Assays:
Staphylococcus aureus = experiment: Zone of inhibition test of bactericidal activity (Procedure 1); format: cell-based; conditions: 2 cm x 2 cm sample on inoculated DSA plate, 37° C., read every 24 hours; FIGS. 1 and 2
Method: (§1) Six 2 cm×2 cm squares of each sample were cut out in sterile conditions. On day one of the experiment cultures of both Pseudomonas aeruginosa and Staphylococcus aureus were incubated aerobically at 37° C. for 24 hours on Diagnostic Sensitivity Agar (DSA). After 24 hours test samples were each placed on a DSA plate and were immediately wetted with 0.5 mls of a buffer solution. Three squares of sample were placed on plates inoculated with Pseudomonas aeruginosa and three were placed on plates inoculated with Staphylococcus aureus. The plates were then incubated at 37° C. for 24 hours. The zone of inhibited growth around the sample was then measured using callipers and the test sample was placed on a new inoculated DSA plate. A swab test was carried out on the area beneath the sample to determine if the sample was bacteriostatic if not bactericidal by smearing the swab on a DSA plate and incubating it for 24 hours and then examining the growth. The samples were transferred onto fresh inoculated plates with the above procedure being carried out every 24 hours for 72 hours as long as the samples remain intact.
(§2) As a negative control, a freeze dried sponge of 45% ORC/55% collagen without any silver was tested.

Pseudomonas aeruginosa = experiment: as above; format: cell-based; conditions: 2 cm x 2 cm sample on inoculated DSA plate, 37° C., read every 24 hours; FIG. 3
Method: as §1, §2

For `O=[N+]([O-])[O-].[Ag+]` [silver nitrate solution (0.5%), silver nitrate], the “bactericidal effect / zone of inhibition against Staphylococcus aureus” value (Staphylococcus aureus) was “zones of inhibition were observed” and the “bactericidal effect / zone of inhibition against Pseudomonas aeruginosa” value (Pseudomonas aeruginosa) was “zones of inhibition were observed”.
